Columns and labels:
[1] = tested on: HMLE-TWIST cells; conditions: 20, 50, 100 nM for 5 or 15 hours, two days chaetocin-free, then doxorubicin
Protocol: Doxorubicin was added after two days and cell death was assayed with cleaved caspase-3 intensity.
To determine if EMT reversal with chaetocin can sensitize TIC-rich breast cancer cells, namely HMLE-TWIST cells, to conventional chemotherapeutic agents, cells were treated for 5 or 15 hours with different concentrations of chaetocin (20 nM, 50 nM, and 100 nM), as is schematized in FIG. 4A. Cells were then washed and incubated in chaetocin-free media for two days. Doxorubicin was then added, and cell death was assayed using FACS analysis of caspase-3 cleavage two days after doxorubicin addition.

[2] = tested on: HMLE-TWIST cells; assay: RNA-seq after two days of chaetocin and two days after removal (Enrichr); assay type: cell-based, human; conditions: versus DMSO, cells found to have mycoplasma infection
Protocol: Briefly, HMLE-TWIST cells were treated for two days with increasing doses of chaetocin (0.1, 0.15, 0.2, 0.5 uM). The cells were then washed and incubated for an additional 2 days in chaetocin-free media. Cells were collected before chaetocin treatment and at the 2-day and 4-day timepoints. Total RNA was extracted and subjected to deep sequencing. All chaetocin-treated transcriptomes were compared to cells treated with DMSO for 2 and 4 days which served as controls.
Using FACS (see FIGS. 3A-3X), it was shown that mesenchymal, TIC-rich HMLE-TWIST cells treated with increasing doses of chaetocin lose their mesenchymal properties. […] All transcriptomes were compared to the corresponding DMSO-treated controls.
The results for two representative chaetocin concentrations ([…]) are shown. Other concentrations produced a highly similar list of pathways. Only pathways whose enrichment is associated with an adjusted p value of less than 0.05 are indicated. Pathways listed in italicized font are those which have a known role in promoting the formation of the mesenchymal state in published literature. The pathways marked with an asterisk in tables above are those having known roles as tumor suppressors.
The results for two representative chaetocin concentrations ([…]) are shown. Other concentrations produced a highly similar list of pathways. […]

In the case of `CN1C(=O)[C@@]23C[C@]4([C@]56C[C@@]78SS[C@](CO)(C(=O)N7[C@H]5Nc5ccccc56)N(C)C8=O)c5ccccc5N[C@@H]4N2C(=O)[C@@]1(CO)SS3` [chaetocin], the “reversal of resistance to doxorubicin (caspase-3 cleavage)” value [1] is reported as “reverses chemotherapy resistance of mesenchymal, TIC-rich HMLE-TWIST cells to doxorubicin”, the “pathways changed after two days of treatment” value ([2]; 0.1, 0.15, 0.2, 0.5 uM for two days) is reported as “repression of several mesenchymal pathways and an increase in DNA repair and two important tumor suppressing pathways, p53 and Rb” and the “persistence of transcriptional changes” value ([2]; 2 days after chaetocin removal) is reported as “transcriptional changes persist after chaetocin removal”.
